Literature values as cited in patent publication EP0712633A1, “Pharmaceutical compositions for topical application” (Blank, Izhak, priority 1994, dated 1996).

Settings: 6-carboxylfluorescein

## OCCS [2-mercaptoethanol]
0.1% w/v in conjunction with sodium dodecyl sulfate 0.05% w/v
  increase of plasma levels of the dye compared with a control: 40 times

## O=C(O)CS [calcium thioglycolate]
Pretreatment of the skin with 4%
  increase of penetration compared to the control: 9 times
